In the supplement of paper PMC10307832 one finds relative viability data, which are given here for 7 cell lines.

Assay in all cases: relative viability (nuclei count vs DMSO), 5 days (fraction); higher = more cells survive
Compound in experiment [1]: CN(C)CC1=CC(=CC=C1)N=C(C2=CC=CC=C2)C3=C(NC4=C3C=CC(=C4)C(=O)N(C)C)O + COc1cccc2cc(-c3nc([C@H]4CC[C@H](C(=O)O)CC4)n4ncnc(N)c34)[nH]c12 [OSI-027] (partner 0.5 µM)
Put shortly:
(§1)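 Lung cancer cell lines were pin-tool dosed in 1536-well plates on the day after seeding, with either a lone drug or a fixed anchor-drug dose plus five library-drug doses (not always all listed) in √10 steps. Nuclei were counted on 4× images after 5 days. Relative viability is the ratio of treated-well to vehicle-well nuclei counts, with each value a median of duplicate plates.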

Compound in experiment [2]: CN(C)CC1=CC(=CC=C1)N=C(C2=CC=CC=C2)C3=C(NC4=C3C=CC(=C4)C(=O)N(C)C)O + C[C@@H](Oc1cc(-c2cnn(C3CCNCC3)c2)cnc1N)c1c(Cl)ccc(F)c1Cl [Crizotinib] (partner 1 µM)
Put shortly:
as §1

Compound in experiment [3]: CN(C)CC1=CC(=CC=C1)N=C(C2=CC=CC=C2)C3=C(NC4=C3C=CC(=C4)C(=O)N(C)C)O + C[C@]1(O)C[C@@H](c2nc(-c3ccc4ccc(-c5ccccc5)nc4c3)c3c(N)nccn32)C1 [Linsitinib] (partner 1 µM)
In a few lines: as §1

Compound in experiment [4]: CN(C)CC1=CC(=CC=C1)N=C(C2=CC=CC=C2)C3=C(NC4=C3C=CC(=C4)C(=O)N(C)C)O + Cc1cc(Nc2cc(N3CCN(C)CC3)nc(Sc3ccc(NC(=O)C4CC4)cc3)n2)n[nH]1 [Tozasertib] (partner 0.1 µM)
Put shortly:
as §1

With NCI-H1666, the relative viability in experiment [1] (first compound 0.08 µM) was found to be 0.858; in experiment [1] (first compound 0.253 µM), 0.851; in experiment [1] (first compound 0.8 µM), 0.889; in experiment [1] (first compound 2.53 µM), 0.831; in experiment [1] (first compound 8 µM) it was 1.05; in experiment [2] (first compound 0.08 µM), 1.24. In addition, the relative viability in experiment [2] (first compound 0.253 µM) came to 1.04; in experiment [2] (first compound 0.8 µM), 0.933; in experiment [2] (first compound 2.53 µM), 1.14; in experiment [2] (first compound 8 µM) it was 1.13; in experiment [3] (first compound 0.08 µM), 0.695; in experiment [3] (first compound 0.253 µM) it was 0.934. Further, the relative viability in experiment [3] (first compound 0.8 µM) is 0.741; in experiment [3] (first compound 2.53 µM) it was 0.941; in experiment [3] (first compound 8 µM) it was 0.731; in experiment [4] (first compound 0.08 µM) it was 0.642; in experiment [4] (first compound 0.253 µM), 0.59; in experiment [4] (first compound 0.8 µM) it was 0.675. The relative viability in experiment [4] (first compound 2.53 µM) worked out at 0.603; in experiment [4] (first compound 8 µM), 0.868.
NCI-H650: the relative viability in experiment [1] (first compound 0.08 µM) was 0.529; in experiment [1] (first compound 0.253 µM) it was 0.561; in experiment [1] (first compound 0.8 µM) it was 0.583; in experiment [1] (first compound 2.53 µM) it was 0.507; in experiment [1] (first compound 8 µM), 0.42; in experiment [2] (first compound 0.08 µM), 0.772. Moreover, the relative viability in experiment [2] (first compound 0.253 µM) was 0.647; in experiment [2] (first compound 0.8 µM), 0.677; in experiment [2] (first compound 2.53 µM) it was 0.561; in experiment [2] (first compound 8 µM), 0.645; in experiment [3] (first compound 0.08 µM) it was 0.854; in experiment [3] (first compound 0.253 µM), 0.965. For the same cell line, the relative viability is 0.952 in experiment [3] (first compound 0.8 µM); 0.83 in experiment [3] (first compound 2.53 µM); 0.767 in experiment [3] (first compound 8 µM); 0.815 in experiment [4] (first compound 0.08 µM); 0.754 in experiment [4] (first compound 0.253 µM); 0.683 in experiment [4] (first compound 0.8 µM). The relative viability worked out at 0.718 in experiment [4] (first compound 2.53 µM) and 0.663 in experiment [4] (first compound 8 µM).
For LU99A, the relative viability in experiment [1] (first compound 0.08 µM) worked out at 0.245; in experiment [1] (first compound 0.253 µM), 0.346; in experiment [1] (first compound 0.8 µM) it was 0.341; in experiment [1] (first compound 2.53 µM), 0.297; in experiment [1] (first compound 8 µM), 0.286; in experiment [2] (first compound 0.08 µM), 0.565. Also, the relative viability in experiment [2] (first compound 0.253 µM) was found to be 0.551; in experiment [2] (first compound 0.8 µM), 0.61; in experiment [2] (first compound 2.53 µM), 0.513; in experiment [2] (first compound 8 µM) it was 0.411; in experiment [3] (first compound 0.08 µM), 0.546; in experiment [3] (first compound 0.253 µM) it was 0.545. Moreover, the relative viability in experiment [3] (first compound 0.8 µM) was determined as 0.496; in experiment [3] (first compound 2.53 µM) it was 0.534; in experiment [3] (first compound 8 µM), 0.485; in experiment [4] (first compound 0.08 µM), 0.312; in experiment [4] (first compound 0.253 µM), 0.3; in experiment [4] (first compound 0.8 µM), 0.384. For the same cell line, the relative viability in experiment [4] (first compound 2.53 µM) is 0.22; in experiment [4] (first compound 8 µM), 0.198.
In the case of HARA, the relative viability in experiment [1] (first compound 0.08 µM) is 0.525; in experiment [1] (first compound 0.253 µM) it was 0.553; in experiment [1] (first compound 0.8 µM), 0.397; in experiment [1] (first compound 2.53 µM) it was 0.482; in experiment [1] (first compound 8 µM), 0.319; in experiment [2] (first compound 0.08 µM), 1.02. The relative viability in experiment [2] (first compound 0.253 µM) worked out at 1.02; in experiment [2] (first compound 0.8 µM) it was 1.05; in experiment [2] (first compound 2.53 µM) it was 1.02; in experiment [2] (first compound 8 µM) it was 1.11; in experiment [3] (first compound 0.08 µM), 0.965; in experiment [3] (first compound 0.253 µM), 1.04. In addition, the relative viability in experiment [3] (first compound 0.8 µM) amounted to 0.865; in experiment [3] (first compound 2.53 µM), 0.921; in experiment [3] (first compound 8 µM), 0.715; in experiment [4] (first compound 0.08 µM), 0.11; in experiment [4] (first compound 0.253 µM), 0.125; in experiment [4] (first compound 0.8 µM) it was 0.0998. Moreover, the figures for the relative viability in experiment [4] (first compound 2.53 µM) and in experiment [4] (first compound 8 µM) were 0.108 and 0.0768, respectively.
As for NCI-H1355, the relative viability in experiment [1] (first compound 0.08 µM) turned out to be 0.463; in experiment [1] (first compound 0.253 µM), 0.457; in experiment [1] (first compound 0.8 µM), 0.393; in experiment [1] (first compound 2.53 µM) it was 0.491; in experiment [1] (first compound 8 µM), 0.329; in experiment [2] (first compound 0.08 µM), 1.1. For the same cell line, the relative viability in experiment [2] (first compound 0.253 µM) worked out at 1.05; in experiment [2] (first compound 0.8 µM), 1.06; in experiment [2] (first compound 2.53 µM) it was 1.03; in experiment [2] (first compound 8 µM) it was 1.06; in experiment [3] (first compound 0.08 µM), 0.849; in experiment [3] (first compound 0.253 µM), 0.885. Moreover, the relative viability in experiment [3] (first compound 0.8 µM) stood at 0.656; in experiment [3] (first compound 2.53 µM), 0.774; in experiment [3] (first compound 8 µM), 0.762; in experiment [4] (first compound 0.08 µM) it was 0.551; in experiment [4] (first compound 0.253 µM) it was 0.616; in experiment [4] (first compound 0.8 µM) it was 0.414. Besides, the relative viability in experiment [4] (first compound 2.53 µM) turned out to be 0.539; in experiment [4] (first compound 8 µM), 0.428.
On to LCLC-97TM1, for which the relative viability in experiment [1] (first compound 0.08 µM) was determined as 0.611; in experiment [1] (first compound 0.253 µM) it was 0.627; in experiment [1] (first compound 0.8 µM), 0.543; in experiment [1] (first compound 2.53 µM), 0.436; in experiment [1] (first compound 8 µM), 0.656; in experiment [2] (first compound 0.08 µM) it was 0.37. Further, the relative viability in experiment [2] (first compound 0.253 µM) was 0.517; in experiment [2] (first compound 0.8 µM), 0.453; in experiment [2] (first compound 2.53 µM), 0.331; in experiment [2] (first compound 8 µM) it was 0.445; in experiment [3] (first compound 0.08 µM) it was 0.212; in experiment [3] (first compound 0.253 µM), 0.193. The relative viability was 0.179 in experiment [3] (first compound 0.8 µM); 0.148 in experiment [3] (first compound 2.53 µM); 0.231 in experiment [3] (first compound 8 µM); 0.219 in experiment [4] (first compound 0.08 µM); 0.256 in experiment [4] (first compound 0.253 µM); 0.224 in experiment [4] (first compound 0.8 µM). Also, the relative viability in experiment [4] (first compound 2.53 µM) was 0.283; in experiment [4] (first compound 8 µM) it was 0.255.
In the case of SK-MES-1, the relative viability is 0.618 in experiment [1] (first compound 0.08 µM); 0.689 in experiment [1] (first compound 0.253 µM); 0.635 in experiment [1] (first compound 0.8 µM); 0.534 in experiment [1] (first compound 2.53 µM); 0.533 in experiment [1] (first compound 8 µM); 0.946 in experiment [2] (first compound 0.08 µM). In addition, the relative viability was found to be 1.03 in experiment [2] (first compound 0.253 µM); 0.956 in experiment [2] (first compound 0.8 µM); 0.883 in experiment [2] (first compound 2.53 µM); 0.939 in experiment [2] (first compound 8 µM); 1.1 in experiment [3] (first compound 0.08 µM); 1 in experiment [3] (first compound 0.253 µM). Further, the relative viability in experiment [3] (first compound 0.8 µM) worked out at 1.07; in experiment [3] (first compound 2.53 µM), 0.918; in experiment [3] (first compound 8 µM), 0.988; in experiment [4] (first compound 0.08 µM), 0.846; in experiment [4] (first compound 0.253 µM), 0.944; in experiment [4] (first compound 0.8 µM), 0.892. Further, the relative viability in experiment [4] (first compound 2.53 µM) was 0.849; in experiment [4] (first compound 8 µM), 0.824.
